Reference: the NIST ThermoML archive (doi:10.1016/j.fluid.2014.01.041)
Numbers after ± are expanded uncertainties.

details: Crystal; DTA

Normal melting temperature [°C]	Compound
106 ± 0.4	CC(=O)CCCCn1c(=O)c2c(ncn2C)n(C)c1=O [3,7-dimethyl-1-(5-oxohexyl)-3,7-dihydro-1H-purine-2,6-dione]
122.0 ± 0.4	C(=C\c1ccccc1)/CN1CCN(C(c2ccccc2)c2ccccc2)CC1 [cinnarizine]

Compound	Normal melting temperature [°C]
NC(=O)CN1CCCC1=O [2-oxo-1-pyrrolidineacetamide]	125 ± 0.4
